Tests used:
guinea pig αβγ-ENaC = target: T1, guinea pig αβγ-ENaC (Cavia porcellus, UniProt B8QP44+H0UT09+H0VNV9); assay: two-electrode voltage clamp, Xenopus oocytes, concentration-response; type: cell-based
T1 construct: gene SCNN1A; heterotrimer in Xenopus laevis oocytes; printed GenBank ids are 5'RACE products
T1 sequence (B8QP44 1-656): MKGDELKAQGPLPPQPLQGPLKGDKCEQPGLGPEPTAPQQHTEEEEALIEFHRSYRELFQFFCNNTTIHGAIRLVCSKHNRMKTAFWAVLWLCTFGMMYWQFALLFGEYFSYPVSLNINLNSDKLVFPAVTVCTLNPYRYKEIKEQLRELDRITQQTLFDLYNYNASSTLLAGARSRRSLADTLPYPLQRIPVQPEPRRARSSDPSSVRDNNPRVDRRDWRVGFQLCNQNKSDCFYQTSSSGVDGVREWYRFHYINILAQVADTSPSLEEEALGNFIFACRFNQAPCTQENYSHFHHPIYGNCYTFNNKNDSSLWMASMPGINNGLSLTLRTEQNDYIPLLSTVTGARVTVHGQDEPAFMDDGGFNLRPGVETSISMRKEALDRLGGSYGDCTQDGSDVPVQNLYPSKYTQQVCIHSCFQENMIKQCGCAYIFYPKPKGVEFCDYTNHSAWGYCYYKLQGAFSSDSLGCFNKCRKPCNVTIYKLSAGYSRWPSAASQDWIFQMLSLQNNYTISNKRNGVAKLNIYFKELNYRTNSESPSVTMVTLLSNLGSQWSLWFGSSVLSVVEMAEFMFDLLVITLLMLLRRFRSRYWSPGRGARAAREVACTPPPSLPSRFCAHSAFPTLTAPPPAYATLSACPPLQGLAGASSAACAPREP
T1 sequence (H0VNV9 1-640): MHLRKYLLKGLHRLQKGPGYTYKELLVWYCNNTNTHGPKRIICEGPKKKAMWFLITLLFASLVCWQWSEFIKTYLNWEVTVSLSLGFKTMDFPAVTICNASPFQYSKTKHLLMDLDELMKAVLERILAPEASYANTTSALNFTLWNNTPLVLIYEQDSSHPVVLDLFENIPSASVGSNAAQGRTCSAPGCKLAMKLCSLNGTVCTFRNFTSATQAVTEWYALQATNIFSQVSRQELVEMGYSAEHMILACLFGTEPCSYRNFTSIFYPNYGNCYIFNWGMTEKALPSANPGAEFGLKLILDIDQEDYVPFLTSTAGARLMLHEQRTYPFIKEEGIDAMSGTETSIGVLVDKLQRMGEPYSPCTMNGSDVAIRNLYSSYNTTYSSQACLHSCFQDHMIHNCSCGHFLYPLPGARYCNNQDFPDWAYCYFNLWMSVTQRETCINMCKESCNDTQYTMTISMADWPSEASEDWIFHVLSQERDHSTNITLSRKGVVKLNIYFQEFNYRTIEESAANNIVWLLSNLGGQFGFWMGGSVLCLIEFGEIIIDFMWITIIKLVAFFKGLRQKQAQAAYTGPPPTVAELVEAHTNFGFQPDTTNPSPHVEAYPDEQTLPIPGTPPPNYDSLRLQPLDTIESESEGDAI
T1 sequence (H0UT09 1-653): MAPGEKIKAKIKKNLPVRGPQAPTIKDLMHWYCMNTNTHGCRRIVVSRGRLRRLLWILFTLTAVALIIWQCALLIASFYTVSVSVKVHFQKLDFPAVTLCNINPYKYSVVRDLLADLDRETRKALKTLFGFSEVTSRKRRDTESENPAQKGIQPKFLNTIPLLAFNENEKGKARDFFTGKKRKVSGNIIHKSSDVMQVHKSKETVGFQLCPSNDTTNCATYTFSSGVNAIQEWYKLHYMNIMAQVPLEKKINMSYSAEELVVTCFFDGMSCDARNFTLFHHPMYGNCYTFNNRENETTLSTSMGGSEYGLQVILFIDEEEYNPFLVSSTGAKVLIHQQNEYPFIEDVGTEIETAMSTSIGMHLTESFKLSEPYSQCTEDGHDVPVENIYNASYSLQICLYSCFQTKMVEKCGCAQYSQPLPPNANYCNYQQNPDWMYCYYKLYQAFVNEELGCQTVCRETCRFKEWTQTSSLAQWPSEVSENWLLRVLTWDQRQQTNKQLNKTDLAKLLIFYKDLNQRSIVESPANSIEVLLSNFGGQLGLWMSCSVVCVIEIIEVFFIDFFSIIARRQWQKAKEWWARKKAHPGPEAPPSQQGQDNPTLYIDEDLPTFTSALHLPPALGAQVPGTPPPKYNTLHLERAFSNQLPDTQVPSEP

guinea pig δβγ-ENaC = target: T2, guinea pig δβγ-ENaC (Cavia porcellus, UniProt H0UT09+H0VJS1+H0VNV9); assay: as above; type: cell-based; conditions: channel block; -60 mV; ORS 90 mM NaCl, pH 7.4, room temperature
T2 construct: gene Scnn1d; heterotrimer in Xenopus laevis oocytes; δ with fused exons 11/12
T2 sequence (H0VJS1 1-618): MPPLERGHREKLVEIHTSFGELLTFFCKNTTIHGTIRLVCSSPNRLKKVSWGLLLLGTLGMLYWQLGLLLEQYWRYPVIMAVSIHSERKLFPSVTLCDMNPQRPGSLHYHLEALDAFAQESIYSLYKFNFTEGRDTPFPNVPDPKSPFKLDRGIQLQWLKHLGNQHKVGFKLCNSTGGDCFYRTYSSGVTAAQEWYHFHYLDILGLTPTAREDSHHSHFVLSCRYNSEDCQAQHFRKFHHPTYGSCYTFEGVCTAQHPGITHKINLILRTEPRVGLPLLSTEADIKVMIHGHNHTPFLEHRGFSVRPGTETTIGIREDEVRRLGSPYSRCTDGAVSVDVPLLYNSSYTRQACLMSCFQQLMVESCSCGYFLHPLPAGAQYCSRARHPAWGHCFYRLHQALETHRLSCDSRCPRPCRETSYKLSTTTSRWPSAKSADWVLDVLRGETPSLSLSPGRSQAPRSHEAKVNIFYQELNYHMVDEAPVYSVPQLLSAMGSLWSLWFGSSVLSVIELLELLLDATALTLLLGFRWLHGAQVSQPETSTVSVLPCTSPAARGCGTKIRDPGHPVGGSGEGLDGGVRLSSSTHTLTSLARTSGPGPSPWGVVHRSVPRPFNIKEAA
T2 sequence (H0VNV9 1-640): T1 sequence (H0VNV9 1-640)
T2 sequence (H0UT09 1-653): T1 sequence (H0UT09 1-653)

Molecule `N=C(N)NC(=O)c1nc(Cl)c(N)nc1N` [amiloride] has an IC50 (guinea pig αβγ-ENaC) of 150 ± 20 nM and an IC50 (guinea pig δβγ-ENaC) of 240 ± 50 nM.

Source: article PMC8662647, “Two Functional Epithelial Sodium Channel Isoforms Are Present in Rodents despite Pronounced Evolutionary Pseudogenization and Exon Fusion” (Molecular Biology and Evolution, 2021)
